Each structure is given as a SMILES string. Active and inactive are the calls of the source. No cut-off for these calls is given here.

Data set [1] deals with HCT-116. The data set can be described thus: cells. To be noted: Homo sapiens, HCT-116, 96 h.
Data set [2] can be described thus: Terminal half life in Sprague-Dawley rat at 25 mg/kg, po. The data set is classed as ADME, organism-based. Also noted: dose 25 mg/kg, route oral. To be noted: in vivo, read-out: beta t1/2 (converted).
Data set [3] can be described thus: Oral bioavailability in Sprague-Dawley rat at 25 mg/kg. The format is ADME, organism-based. To be noted: in vivo.
The test system of data set [4] is HCT-116. The data set can be described thus: cells. To be noted: Homo sapiens, HCT-116, 96 h. The source holds these as a separate data set.
Data set [5] relates to Rattus norvegicus. The data set can be described thus: AUC (0 to t) in Sprague-Dawley rat at 25 mg/kg, po. The data set is classed as ADME, organism-based, Plasma. Also noted: dose 25 mg/kg, route oral. To be noted: in vivo.
The nature of data set [6]: Cmax in Sprague-Dawley rat at 25 mg/kg, po. The format is ADME, organism-based. Also noted: dose 25 mg/kg, route oral. To be noted: in vivo.
The test system of data set [7] is Rattus norvegicus. In words: AUC (0 to t) in Sprague-Dawley rat at 50 mg/kg, po. The data set is classed as ADME, organism-based, Plasma. Also noted: dose 50 mg/kg, route oral. Conditions: in vivo.
Data set [8] relates to SJSA-1. The data set can be described thus: Induction of cell death in human SJSA1 cells at 1. 25 uM after 2 days by trypan blue staining. The data set is classed as functional.
Data set [9] can be described thus: Oral bioavailability in Sprague-Dawley rat at 50 mg/kg. To be noted: in vivo. The format is ADME, organism-based.
A short description of data set [10]: Cmax in Sprague-Dawley rat at 50 mg/kg, po. The data set is classed as ADME, organism-based. Also noted: dose 50 mg/kg, route oral. Conditions: in vivo.
The subject of data set [11] is SJSA-1. In words: Induction of cell death in human SJSA1 cells by trypan blue staining. The format is functional, cell-based.
Data set [12] concerns Mus musculus. In words: Toxicity in mouse xenografted with human SJSA1 cells assessed as weight loss at 300 mg/kg, po qd for 14 days relative to untreated control. The format is organism-based, SJSA-1. Also noted: dose 300 mg/kg, route oral. To be noted: in vivo, 336 h.
For a further data set, the system named is SAOS-2. In words: Induction of cell death in human Saos2 cells deficient in wild type p53 at 10 uM by trypan blue staining. The format is functional, cell-based.
Data set [13] can be described thus: Terminal half life in Sprague-Dawley rat at 50 mg/kg, po. The data set is classed as ADME, organism-based. Also noted: dose 50 mg/kg, route oral. Conditions: in vivo, read-out: beta t1/2 (converted).
Data set [14] has as its system Mus musculus. The data set can be described thus: Toxicity in mouse xenografted with human SJSA1 cells assessed as occurrence of toxicity symptoms at 300 mg/kg, po qd for 14 days relative to untreated control. The format is organism-based, SJSA-1. Also noted: dose 300 mg/kg, route oral. Conditions: in vivo, 336 h.
The target of data set [15] is T1, Tumour suppressor p53/oncoprotein Mdm2 (Homo sapiens) (UniProt P04637+Q00987). The data set can be described thus: Inhibition of MDM2-p53 interaction in human SJSA1 cells expressing wild type p53 assessed as increase in MDM2 protein level at 10 uM by Western blot. To be noted: SJSA-1. The format is cell-based.
For data set [16], the target named is T1, Tumour suppressor p53/oncoprotein Mdm2 (Homo sapiens). The data set can be described thus: Inhibition of MDM2-p53 interaction in human SJSA1 cells expressing wild type p53 assessed as increase in p21 protein level at 10 uM by Western blot. The data set is classed as cell-based. Conditions: SJSA-1.

T1 sequence (P04637 whole entry, looked up): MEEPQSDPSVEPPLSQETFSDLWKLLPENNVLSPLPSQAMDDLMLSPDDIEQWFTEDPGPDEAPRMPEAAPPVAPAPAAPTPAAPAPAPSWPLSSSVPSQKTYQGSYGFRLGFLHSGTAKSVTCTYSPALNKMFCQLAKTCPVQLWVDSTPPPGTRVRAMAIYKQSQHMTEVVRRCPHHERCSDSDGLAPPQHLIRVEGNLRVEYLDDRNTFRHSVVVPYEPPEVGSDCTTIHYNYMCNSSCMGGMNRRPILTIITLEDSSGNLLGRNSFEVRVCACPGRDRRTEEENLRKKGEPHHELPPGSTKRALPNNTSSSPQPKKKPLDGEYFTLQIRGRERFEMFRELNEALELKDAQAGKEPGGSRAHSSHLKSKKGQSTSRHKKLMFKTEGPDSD
T1 sequence (Q00987 whole entry, looked up): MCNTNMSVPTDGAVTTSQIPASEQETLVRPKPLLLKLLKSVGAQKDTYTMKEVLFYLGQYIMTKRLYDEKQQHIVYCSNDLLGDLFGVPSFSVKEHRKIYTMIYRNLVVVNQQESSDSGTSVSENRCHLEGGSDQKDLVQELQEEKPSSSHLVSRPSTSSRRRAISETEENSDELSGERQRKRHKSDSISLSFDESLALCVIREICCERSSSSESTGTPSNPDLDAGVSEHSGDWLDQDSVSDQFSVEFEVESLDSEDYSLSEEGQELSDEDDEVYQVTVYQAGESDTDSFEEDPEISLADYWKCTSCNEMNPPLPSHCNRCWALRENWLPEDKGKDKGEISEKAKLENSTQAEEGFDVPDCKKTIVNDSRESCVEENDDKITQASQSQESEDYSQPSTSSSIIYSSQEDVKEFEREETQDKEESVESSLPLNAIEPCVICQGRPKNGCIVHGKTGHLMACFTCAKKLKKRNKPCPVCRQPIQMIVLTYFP

Regarding `CC(C)(C)C[C@H]1N[C@@H](C(=O)NCC[C@@H](O)CO)[C@H](c2cccc(Cl)c2)[C@@]12C(=O)Nc1cc(Cl)c(F)cc12`, the IC50 was found to be 2800 nM in the data set on HCT-116 [1] and 32800 nM with HCT-116 [4]. Further, in data set [2], the half-life was 3.4 h. In [3], the bioavailability is 31%. In the data set on Rattus norvegicus [5], this molecule registered an AUC of 11700 ng·h/mL. This molecule yielded a Cmax in data set [6] of 3550 ng/mL.
In the data set on HCT-116 [1], `COCCOCCNC(=O)[C@@H]1N[C@H](CC(C)(C)C)[C@]2(C(=O)Nc3cc(Cl)ccc32)[C@H]1c1cccc(Cl)c1F` displayed an IC50 of 800 nM. Besides, in data set [2], the half-life was 1.2 h. The bioavailability in [3] came to 5%. In data set [6], this molecule showed a Cmax of 97 ng/mL.
`CC(C)(C)C[C@H]1N[C@@H](C(=O)NCC[C@H](O)CO)[C@H](c2cccc(Cl)c2)[C@@]12C(=O)Nc1cc(Cl)ccc12` yielded a half-maximal inhibitory concentration (IC50) in the data set on HCT-116 [1] of 800 nM. Moreover, in [2], the half-life was 3 h. In [3], this molecule showed a bioavailability of 19%. Further, the Cmax in data set [6] amounted to 805 ng/mL.
`CC(C)(C)C[C@H]1N[C@@H](C(=O)NCC[C@H](O)CO)[C@H](c2cccc(Cl)c2F)[C@@]12C(=O)Nc1cc(Cl)ccc12`: the 50% inhibitory concentration (IC50) with HCT-116 [1] was found to be 400 nM; with HCT-116 [4], 16000 nM. In addition, the exposure (AUC) in the data set with Rattus norvegicus [7] came to 8770 ng·h/mL. In addition, the Activity with SJSA-1 [8] was 50%; in the data set on SJSA-1 [11], “Dose-dependent effect”; with Mus musculus [12] it was “Non-toxic”; in the data set with Mus musculus [14] it was “Non-toxic”. In data set [9], the bioavailability amounted to 21%. Further, the Cmax in data set [10] was 1510 ng/mL. Besides, in the data set with SAOS-2, the result was inactive. For the same molecule, the half-life in data set [13] was 3.9 h.
`CN1CCN(CCNC(=O)[C@@H]2N[C@H](CC(C)(C)C)[C@]3(C(=O)Nc4cc(Cl)ccc43)[C@H]2c2cccc(Cl)c2F)CC1` showed an IC50 in the data set with HCT-116 [1] of 400 nM. In data set [2], the half-life is 3.8 h. The bioavailability in data set [3] was 31%. In data set [6], this molecule returned a Cmax of 274 ng/mL.
The corresponding values for `CC(C)(C)C[C@H]1N[C@@H](C(=O)NCCN2CCOCC2)[C@H](c2cccc(Cl)c2F)[C@@]12C(=O)Nc1cc(Cl)ccc12` are 700 nM, 1.3 h, 10% and 248 ng/mL.
In the case of `CN1CCC(CCNC(=O)[C@@H]2N[C@H](CC(C)(C)C)[C@]3(C(=O)Nc4cc(Cl)ccc43)[C@H]2c2cccc(Cl)c2F)CC1`, the concentration for half-maximal inhibition (IC50) in the data set with HCT-116 [1] was 400 nM; with HCT-116 [4], 7300 nM. The half-life in [2] is 7.1 h. Further, the bioavailability in data set [3] came to 14%. In [6], this molecule returned a maximum concentration (Cmax) of 120 ng/mL.
Consider `CC(C)(C)C[C@H]1N[C@@H](C(=O)NCC[C@H](O)CO)[C@H](c2cccc(Cl)c2)[C@@]12C(=O)Nc1cc(Cl)c(F)cc12`, for which the IC50 in the data set on HCT-116 [1] amounted to 1100 nM; in the data set with HCT-116 [4] it was 24800 nM. In addition, the half-life in data set [2] is 1.4 h. This molecule also yielded a bioavailability in data set [3] of 65%. The results for the Activity in the data set with SJSA-1 [8] and with SJSA-1 [11] were 20% and “Dose-dependent effect”, respectively. Further, the Cmax in data set [6] stood at 3750 ng/mL.
Consider `COc1ccc2c(c1)NC(=O)[C@]21[C@@H](CC(C)(C)C)N[C@@H](C(=O)N(C)C)[C@@H]1c1cccc(Br)c1`, for which the result in [15] and in data set [16] was inactive.
Turning to `CC(C)(C)C[C@H]1N[C@@H](C(=O)NC[C@H](O)CO)[C@H](c2cccc(Cl)c2)[C@@]12C(=O)Nc1cc(Cl)c(F)cc12`, the IC50 amounted to 1300 nM in the data set on HCT-116 [1] and 23600 nM with HCT-116 [4]. In addition, the half-life in data set [2] is 3.2 h. In data set [3], this molecule came in with a bioavailability of 18%. In data set [6], this molecule came in with a Cmax of 2070 ng/mL.
